Laboratory results taken from paper PMC7269481, “ZN148 Is a Modular Synthetic Metallo-β-Lactamase Inhibitor That Reverses Carbapenem Resistance in Gram-Negative Pathogens In Vivo” (Antimicrobial Agents and Chemotherapy, 2020).

What was measured:
NDM-1 = target: T1, NDM-1 (Klebsiella pneumoniae, UniProt C7C422); assay: Time-dependent inactivation kinetics of purified NDM-1 (imipenem); format: biochemical
T1 construct: made in house
Experimental: Protein expression and purification of NDM-1 and VIM-2 were performed as previously described ([36], [43], [57]). Stock solutions of purified NDM-1 and VIM-2 were prepared in 50 mM HEPES buffer (pH 7.5; Merck). Inhibition of NDM-1 and VIM-2 were determined for ZN148 and the analogues ZN222, ZN223, and ZN228 at different concentrations of inhibitor after preincubation times of 2, 8, 15, 25, and 32 min in 50 mM HEPES buffer (pH 7.5) supplemented with 1 μM ZnSO4 (Sigma-Aldrich) and bovine serum albumin (Sigma-Aldrich; final concentration, 2 μg/ml) at 25°C. Concentrations of 1 nM VIM-2 and 30 nM NDM-1 were used, and the reaction was initiated by the addition of 30 μM nitrocefin (Merck) for VIM-2 or 100 μM imipenem (Sigma-Aldrich) for NDM-1. The reaction was measured at 482 nm (VIM-2) or […] (NDM-1) in either standard 96-well plates (Thermo Fisher Scientific) for VIM-2 or UV-transparent 96-well plates (Corning, Kennebunk, ME) for NDM-1 at 25°C in a SpectraMax Plus plate reader (Molecular Devices). All of the enzyme and substrate concentrations indicated are the final concentrations in the assay. The enzyme activity as a percentage was calculated based on the initial velocity and compared to the control without inhibitor compound. All tests were performed at least in duplicates.
The observed rate constant (kobs) per inhibitor concentration was calculated from the slope of a semilog plot of the enzyme activity in percent versus preincubation time.
By fitting these values, the irreversible kinetic parameters maximum inactivation rate (kinact) and the inhibitor concentration that produces half-maximal rate of inactivation (KI) were obtained. Finally, the inhibitors were characterized by calculating kinact/KI. Where no saturation curve could be observed, KI and kinact were determined from the linear part of plot 1/kobs versus 1/[I].

[1] = tested on: NDM-1-producing K. pneumoniae 50752501; assay: Murine neutropenic peritonitis model; format: in vivo, mice
Experimental: The in vivo efficacy of meropenem (Mylan; Mylan Hospitals, Asker, Norway) in combination with ZN148 were evaluated in a murine neutropenic peritonitis model. Female NRMI mice (Taconic Biosciences, Lille Skensved, Denmark) were rendered neutropenic by intraperitoneal (i.p.) injection with cyclophosphamide (Baxter, Søborg, Denmark) at 4 days (200 mg/kg) and 1 day (100 mg/kg) prior to inoculation. Mice were inoculated i.p. with ∼5 × 10^6 CFU of NDM-1-producing K. pneumoniae 50752501. At 1 h postinoculation, the mice were injected subcutaneously (s.c.) in the neck region with ZN148 corresponding to 10, 33, or 100 mg/kg or vehicle. After 30 min, the mice were injected s.c. with 33 mg/kg meropenem or vehicle. Four mice were included for each treatment regime. At 5 h postinoculation, the mice were anesthetized. Blood was collected from axillary cutdown, and the mice were sacrificed. Subsequently, 2 ml of sterile saline was injected i.p., and the intraperitoneal fluid was sampled. Blood and intraperitoneal fluid were serially diluted in 0.9% NaCl and plated on blood agar plates with 5% horse blood (Statens Serum Institut, Copenhagen, Denmark) for CFU determination. Groups were analyzed with analysis of variance (ANOVA) Dunnett’s multiple-comparison test in Prism 7.04 (GraphPad Software, Inc.). P values of <0.05 were considered statistically significant. All animal experiments were approved by the National Committee of Animal Ethics, Denmark (permission 2014-15-0201-00171), and adhered to the standards of EU Directive 2010/63/EU.

VIM-2 = target: T2, VIM-2 (Escherichia coli, UniProt Q5U7L7); assay: Zinc content determination by ICP-MS, VIM-2; format: biochemical; settings: ICP-MS after preincubation
T2 construct: made in house
Experimental: Inductively coupled plasma mass spectrometry (ICP-MS) was used to investigate the chelating property of ZN148 by measuring the zinc concentration (Zn^66) after incubation of VIM-2 with or without ZN148 in zinc depleted 50 mM HEPES buffer (pH 7.5; Chelex HEPES buffer). The Chelex buffer was prepared by stirring 2 g of Chelex resin (Bio-Rad, Hercules, CA) in 100 ml of 50 mM HEPES buffer (pH 7.5). The resin was subsequently removed by sterile filtration (Merck Millipore, 0.22 μm). VIM-2 (10 g/liter) was diluted to 12.5 mg/liter and mixed with ZN148 at different final concentrations (0, 12.5, 125, and 1250 μM) in Chelex HEPES buffer. All solutions were allowed to incubate for 30 min on ice and subsequently concentrated by centrifugation (at 4,000 × g, 4°C for 25 min) to a volume of 250 μl using centrifugal molecular cutoff filters (Merck Millipore, 10,000 Da). […] Per inhibitor concentration, at least three biological replicates were performed and injected and measured in triplicates. For the MS analysis the kinetic energy discrimination mode with a helium flow rate of 5.7 ml/min, 20 sweeps per reading, and a dwell time of 100 ms/atomic mass unit (AMU) for Zn^66 and 50 ms/AMU for Rh^103 were applied. […] The zinc concentration within the samples was determined based on an external calibration curve (0, 290, 580, 1,160, and 2,320 μg/liter). […]

T1 sequence (C7C422 29-270, looked up): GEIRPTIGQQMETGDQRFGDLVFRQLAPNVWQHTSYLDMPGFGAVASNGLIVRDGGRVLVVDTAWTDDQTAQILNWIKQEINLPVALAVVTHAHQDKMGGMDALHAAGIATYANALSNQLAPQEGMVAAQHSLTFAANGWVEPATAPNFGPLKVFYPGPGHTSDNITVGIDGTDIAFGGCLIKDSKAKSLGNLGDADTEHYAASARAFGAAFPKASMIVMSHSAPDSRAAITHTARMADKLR

## CN(C[C@H](O)[C@@H](O)[C@H](O)[C@H](O)CO)C(=O)c1ccc(CN(Cc2ccccn2)Cc2ccccn2)nc1 [ZN148]
NDM-1
  kinact: 0.000983 s⁻¹
  kinact/KI: 3.17 M⁻¹ s⁻¹
[1]; ZN148 alone, s.c.
  CFU with ZN148 alone compared to vehicle: did not result in a reduction in CFU
[1]; meropenem 33 mg/kg + 33 and 100 mg/kg ZN148 s.c.
  CFU/ml with meropenem + higher ZN148 doses compared to meropenem alone: same effect
[1]; s.c. meropenem 33 mg/kg + ZN148 10 mg/kg, 5 h postinoculation, P < 0.0001
  CFU/ml in peritoneal fluid compared to meropenem alone: significantly lower CFU/ml
[1]; s.c. meropenem 33 mg/kg + ZN148 10 mg/kg, 5 h postinoculation, P < 0.01
  CFU/ml in blood compared to meropenem alone: significantly lower CFU/ml
VIM-2
  zinc removed from enzyme: ~1.8 molar equivalents
